Results as given in patent publication US20230183219A1, “CONDENSED SUBSTITUTED HYDROPYRROLES AS ANTAGONISTS OF THE MUSCARINIC ACETYLCHOLINE RECEPTOR M4” (Vanderbilt University, priority 2020, published 2023).
Like-named read-outs stand apart in the source and are kept apart here.

Biological target: T1, Human M4 (Homo sapiens, UniProt P08173)
T1 construct: Human or rat M4 cDNA, along with the chimeric G protein Gqi5, were transfected into Chinese hamster ovary (CHO-K1) cells; expressed in transfected cells; host or cells: CHO-K1 (Chinese hamster ovary, ATCC), stably co-expressing Gqi5
T1 sequence (P08173 1-479): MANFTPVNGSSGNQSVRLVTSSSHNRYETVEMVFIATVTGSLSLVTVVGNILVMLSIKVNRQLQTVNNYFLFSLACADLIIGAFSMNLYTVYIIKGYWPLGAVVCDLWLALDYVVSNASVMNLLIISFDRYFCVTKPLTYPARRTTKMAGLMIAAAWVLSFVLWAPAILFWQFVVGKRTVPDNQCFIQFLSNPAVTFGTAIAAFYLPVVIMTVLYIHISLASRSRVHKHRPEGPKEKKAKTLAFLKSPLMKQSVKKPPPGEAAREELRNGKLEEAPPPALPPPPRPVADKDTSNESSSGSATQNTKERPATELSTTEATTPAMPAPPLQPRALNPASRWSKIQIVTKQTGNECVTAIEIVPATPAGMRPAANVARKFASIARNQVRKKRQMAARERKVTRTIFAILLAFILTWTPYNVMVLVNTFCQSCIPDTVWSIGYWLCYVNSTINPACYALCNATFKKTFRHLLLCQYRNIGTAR
Test: mAChR M4 cell-based functional assay (calcium flux, decrease of EC80 acetylcholine response)
Details: for remaining activity at 30 µM: read-out: Human M4 Emin; for IC50: M4/Gqi5/CHO-K1 cells, decrease of response to EC80 acetylcholine
Summary of the method: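 CHO-K1 cells stably co-expressing M4 and chimeric Gqi5, loaded with Fluo-4 AM; calcium flux read on FDSS. Compound added at 2 s, EC20 acetylcholine at 143 s, EC80 acetylcholine at 268 s. IC50 from concentration-dependent decrease of the EC80 response, four-parameter logistic fit; 10-point 1:3 titrations.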

Row | Structure (SMILES) | remaining activity at 30 µM (% ACh maximum at 30 μM) | IC50 | remaining activity at 30 µM
1 | Cn1cc2cc(-c3cc(C#N)c(N[C@H]4C[C@@H]5CN(C[C@@H]6CCOC6)C[C@@H]5C4)nn3)ccc2n1 [Example 154, 6-(2-methyl-2H-indazol-5-yl)-3-(((3aR,5s,6aS)-2-(((S)-tetrahydrofuran-3-yl)methyl)octahydro-cyclopenta[c]pyrrol-5-yl)amino)pyridazine-4-carbonitrile] | 15% | 87.8 nM | 
2 | Fc1cccc(-c2cc(C(F)(F)F)c(N[C@H]3C[C@@H]4CN(CC5CCOCC5)C[C@@H]4C3)nn2)c1F [Example 81, (3aR,5s,6aS)-N-(6-(2,3-difluorophenyl)-4-(trifluoro-methyl)pyridazin-3-yl)-2-((tetrahydro-2H-pyran-4-yl)methyl)octahydro-cyclopenta[c]pyrrol-5-amine] | 3% | 178 nM | 
3 | COc1ccc(F)c(-c2cc(C(F)(F)F)c(N[C@H]3C[C@@H]4CN(CC5CCOCC5)C[C@@H]4C3)nn2)c1 [Example 57, (3aR,5s,6aS)-N-(6-(2-fluoro-5-methoxyphenyl)-4-(trifluoromethyl)pyridazin-3-yl)-2-((tetrahydro-2H-pyran-4-yl)methyl)octahydro-cyclopenta[c]pyrrol-5-amine] | 3% | 278 nM | 
4 | Fc1ccc(C2CC2)cc1-c1cc(C(F)(F)F)c(N[C@H]2C[C@@H]3CN(CC4CCOCC4)C[C@@H]3C2)nn1 [Example 94, (3aR,5s,6aS)-N-(6-(5-cyclopropyl-2-fluorophenyl)-4-(trifluoromethyl)pyridazin-3-yl)-2-((tetrahydro-2H-pyran-4-yl)methyl)octahydro-cyclopenta[c]pyrrol-5-amine] | 3% | 1330 nM | 
5 | Cn1ccc2ccc(-c3cc(C(F)(F)F)c(N[C@H]4C[C@@H]5CN(CC6CCOCC6)C[C@@H]5C4)nn3)cc21 [Example 90, (3aR,5s,6aS)-N-(6-(1-methyl-1H-indol-6-yl)-4-(trifluoromethyl)pyridazin-3-yl)-2-((tetrahydro-2H-pyran-4-yl)methyl)octahydro-cyclopenta[c]pyrrol-5-amine] | 4% | 637 nM | 
6 | Cn1cc2cc(-c3cnc(N[C@H]4C[C@@H]5CN(CC6CCOCC6)C[C@@H]5C4)nc3)ccc2n1 [Example 12, (3aR,5s,6aS)-N-(5-(2-methyl-2H-indazol-5-yl)pyrimidin-2-yl)-2-((tetrahydro-2H-pyran-4-yl)methyl)octahydro-cyclopenta[c]pyrrol-5-amine] |  | 2750 nM | 10%
7 | [2H]C([2H])([C@H]1CCOC1)N1C[C@H]2C[C@H](Nc3nnc(-c4cc(C)ccc4C)cc3C(F)(F)F)C[C@H]2C1 [Example 116, (3aR,5s,6aS)-N-(6-(2,5-dimethylphenyl)-4-(trifluoro-methyl)pyridazin-3-yl)-2-(((R)-tetrahydrofuran-3-yl)methyl-d2)octahydro-cyclopenta[c]pyrrol-5-amine] | 3% | 266 nM | 
8 | [2H]C([2H])(C1CCOCC1)N1C[C@H]2C[C@H](Nc3nnc(-c4cc(C)ccc4C)cc3C(F)(F)F)C[C@H]2C1 [Example 98, (3aR,5s,6aS)-N-(6-(2,5-dimethylphenyl)-4-(trifluoromethyl)pyridazin-3-yl)-2-((tetrahydro-2H-pyran-4-yl)methyl-d2)octahydro-cyclopenta[c]pyrrol-5-amine] | 3% | 72.7 nM | 
9 | Fc1ccc(F)c(-c2cc(C(F)(F)F)c(N[C@H]3C[C@@H]4CN(C[C@H]5COCCO5)C[C@@H]4C3)nn2)c1 [Example 70, (3aR,5s,6aS)-2-(((S)-1,4-dioxan-2-yl)methyl)-N-(6-(2,5-difluorophenyl)-4-(trifluoromethyl)pyridazin-3-yl)octahydro-cyclopenta[c]pyrrol-5-amine] | 3% | 142 nM | 
10 | COc1c(F)cc(-c2cc(C(F)(F)F)c(N[C@H]3C[C@@H]4CN(CC5CCOCC5)C[C@@H]4C3)nn2)cc1F [Example 80, (3aR,5s,6aS)-N-(6-(3,5-difluoro-4-methoxyphenyl)-4-(trifluoromethyl)pyridazin-3-yl)-2-((tetrahydro-2H-pyran-4-yl)methyl)octahydro-cyclopenta[c]pyrrol-5-amine] | 3% | 170 nM | 
11 | Cn1cc2cc(-c3cc(C(F)(F)F)c(N[C@H]4C[C@@H]5CN(CC6CCCOC6)C[C@@H]5C4)nn3)ccc2n1 (single isomer, unassigned) [Example 36] | 4% | 99.7 nM | 
12 | [2H]C([2H])(C1CCOCC1)N1C[C@H]2C[C@H](Nc3nnc(-c4cc(F)cc(F)c4F)cc3C(F)(F)F)C[C@H]2C1 [Example 124, (3aR,5s,6aS)-2-((tetrahydro-2H-pyran-4-yl)methyl-d2)-N-(4-(trifluoromethyl)-6-(2,3,5-trifluorophenyl)pyridazin-3-yl)octahydrocyclopenta[c]pyrrol-5-amine] | 3% | 173 nM | 
13 | Cn1cnc2ccc(-c3cc(C(F)(F)F)c(N[C@H]4C[C@@H]5CN(Cc6ccccn6)C[C@@H]5C4)nn3)cc21 [Example 117, (3aR,5s,6aS)-N-(6-(1-methyl-1H-benzo[d]imidazol-6-yl)-4-(trifluoromethyl)pyridazin-3-yl)-2-(pyridin-2-ylmethyl)octahydro-cyclopenta[c]pyrrol-5-amine] | 4% | 345 nM | 
14 | COc1ccc(-c2cc(C(F)(F)F)c(N[C@H]3C[C@@H]4CN(CC5CCOCC5)C[C@@H]4C3)nn2)c(F)c1 [Example 61, (3aR,5s,6aS)-N-(6-(2-fluoro-4-methoxyphenyl)-4-(trifluoromethyl)pyridazin-3-yl)-2-((tetrahydro-2H-pyran-4-yl)methyl)octahydro-cyclopenta[c]pyrrol-5-amine] | 3% | 233 nM | 

The remaining compounds from weak to strong by IC50, led by results:

Row | remaining activity at 30 µM (% ACh maximum at 30 μM) | IC50 | Structure (SMILES) | remaining activity at 30 µM
15 | 3% | 71.3 nM | [2H]C([2H])(C1CCOCC1)N1C[C@H]2C[C@H](Nc3nnc(-c4ccc5c(cnn5C)c4)cc3C(F)(F)F)C[C@H]2C1 [Example 144, (3aR,5s,6aS)-N-(6-(1-methyl-1H-indazol-5-yl)-4-(trifluoromethyl)pyridazin-3-yl)-2-((tetrahydro-2H-pyran-4-yl)methyl)octahydro-cyclopenta[c]pyrrol-5-amine] | 
16 | 4% | 55.6 nM | Cc1ccc(F)cc1-c1cc(C(F)(F)F)c(N[C@H]2C[C@@H]3CN(C[C@@H]4CCOC4)C[C@@H]3C2)nn1 [Example 30, (3aR,5s,6aS)-N-(6-(5-fluoro-2-methylphenyl)-4-(trifluoromethyl)pyridazin-3-yl)-2-(((S)-tetrahydrofuran-3-yl)methyl)octahydro-cyclopenta[c]pyrrol-5-amine] | 
17 | 3% | 42.8 nM | CCc1ccccc1-c1cc(C(F)(F)F)c(N[C@H]2C[C@@H]3CN(CC4CCOCC4)C[C@@H]3C2)nn1 [Example 85, (3aR,5s,6aS)-N-(6-(2-ethylphenyl)-4-(trifluoro-methyl)pyridazin-3-yl)-2-((tetrahydro-2H-pyran-4-yl)methyl)octahydro-cyclopenta[c]pyrrol-5-amine] | 
18 | 14% | 15.7 nM | Cn1cc2cc(-c3cc(C#N)c(N[C@H]4C[C@@H]5CN(CC6CCCOC6)C[C@@H]5C4)nn3)ccc2n1 (single isomer, unassigned) [Example 158] | 
19 | 6% | 14.9 nM | Cc1ccc(F)cc1-c1cc(C#N)c(N[C@H]2C[C@@H]3CN(C[C@H]4CCOC4)C[C@@H]3C2)nn1 [Example 152, 6-(5-fluoro-2-methylphenyl)-3-(((3aR,5s,6aS)-2-(((R)-tetrahydrofuran-3-yl)methyl)octahydro-cyclopenta[c]pyrrol-5-yl)amino)pyridazine-4-carbonitrile] | 
20 | 2% | 14.3 nM | C[C@H]1CCCN(c2cc(C(F)(F)F)c(N[C@H]3C[C@@H]4CN(CC5CCOCC5)C[C@@H]4C3)nn2)C1 [Example 137, (3aR,5s,6aS)-N-(6-((S)-3-methylpiperidin-1-yl)-4-(trifluoro-methyl)pyridazin-3-yl)-2-((tetrahydro-2H-pyran-4-yl)methyl)octahydro-cyclopenta[c]pyrrol-5-amine] | 
21 | 3% | 8.9 nM | FC(F)(F)c1cc(-c2ccc3ncsc3c2)nnc1N[C@H]1C[C@@H]2CN(CC3CCOCC3)C[C@@H]2C1 [Example 112, (3aR,5s,6aS)-N-(6-(benzo[d]thiazol-6-yl)-4-(trifluoromethyl)pyridazin-3-yl)-2-((tetrahydro-2H-pyran-4-yl)methyl)octahydro-cyclopenta[c]pyrrol-5-amine] | 
22 | 2% | 7.2 nM | F[C@H]1CCN(c2cc(C(F)(F)F)c(N[C@H]3C[C@@H]4CN(CC5CCOCC5)C[C@@H]4C3)nn2)C1 [Example 139, (3aR,5s,6aS)-N-(6-((S)-3-fluoropyrrolidin-1-yl)-4-(trifluoromethyl)pyridazin-3-yl)-2-((tetrahydro-2H-pyran-4-yl)methyl)octahydro-cyclopenta[c]pyrrol-5-amine] | 
